Test results from PMC10899177, “Bicarbonate signalling via G protein-coupled receptor regulates ischaemia-reperfusion injury” (Nature Communications, 2024).

Columns and labels:
GPR30 [1] = molecular target: T1, GPR30 (Mus musculus, UniProt Q8BMP4); assay: inositol phosphate accumulation in MCF-mGPR30 cells; calcium responses lost in Gpr30-null mural cells; assay type: cell-based
T1 construct: gene Gper1; mGPR30 stably expressed in MCF-7 cells
T1 sequence (Q8BMP4 1-375): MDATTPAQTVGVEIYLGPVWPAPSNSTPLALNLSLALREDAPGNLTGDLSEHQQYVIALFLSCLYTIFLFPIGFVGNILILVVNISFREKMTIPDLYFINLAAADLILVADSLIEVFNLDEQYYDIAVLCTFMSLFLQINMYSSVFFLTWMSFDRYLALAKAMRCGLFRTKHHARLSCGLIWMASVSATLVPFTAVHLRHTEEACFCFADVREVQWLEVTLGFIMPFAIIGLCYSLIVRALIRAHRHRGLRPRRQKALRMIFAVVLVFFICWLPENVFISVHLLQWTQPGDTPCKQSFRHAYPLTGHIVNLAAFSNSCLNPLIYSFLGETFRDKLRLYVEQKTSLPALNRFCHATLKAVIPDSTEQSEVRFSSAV

GPR30 [2] = molecular target: T2, GPR30 (Homo sapiens, UniProt Q99527); assay: scintillation proximity assay with […]C-bicarbonate on membranes; the EC50 is from inositol phosphate accumulation in HEK293 cells; assay type: cell-based
T2 construct: gene GPER1; hGPR30-HA (C-terminal HA tag), plasma membrane fraction of HEK293 cells
T2 sequence (Q99527 whole entry): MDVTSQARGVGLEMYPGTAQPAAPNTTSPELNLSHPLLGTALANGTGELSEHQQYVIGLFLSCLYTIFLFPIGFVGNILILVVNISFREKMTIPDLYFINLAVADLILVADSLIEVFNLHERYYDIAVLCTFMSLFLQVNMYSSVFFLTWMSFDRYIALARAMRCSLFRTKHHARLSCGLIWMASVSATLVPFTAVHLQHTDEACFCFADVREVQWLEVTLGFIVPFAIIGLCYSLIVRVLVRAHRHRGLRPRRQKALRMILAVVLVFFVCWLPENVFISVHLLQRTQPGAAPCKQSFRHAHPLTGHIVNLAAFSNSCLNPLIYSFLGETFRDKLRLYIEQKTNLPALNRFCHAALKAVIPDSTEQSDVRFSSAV

GPR30 [3] = molecular target: T3, GPR30 (Danio rerio, UniProt B3G515)
T3 construct: gene gper1
T3 sequence (B3G515 whole entry): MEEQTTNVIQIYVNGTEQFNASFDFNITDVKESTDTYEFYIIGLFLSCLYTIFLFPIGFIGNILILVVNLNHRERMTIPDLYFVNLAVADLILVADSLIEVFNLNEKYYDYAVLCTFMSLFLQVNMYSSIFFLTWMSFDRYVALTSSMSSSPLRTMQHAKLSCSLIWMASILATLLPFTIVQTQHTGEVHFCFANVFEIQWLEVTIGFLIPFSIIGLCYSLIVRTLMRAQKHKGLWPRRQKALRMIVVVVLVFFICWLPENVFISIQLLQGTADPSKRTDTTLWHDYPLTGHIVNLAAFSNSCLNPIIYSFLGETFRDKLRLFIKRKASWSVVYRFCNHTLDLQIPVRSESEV

GPR30 [4] = molecular target: T4, GPR30 (Rattus norvegicus, UniProt O08878)
T4 construct: gene Gper1
T4 sequence (O08878 whole entry): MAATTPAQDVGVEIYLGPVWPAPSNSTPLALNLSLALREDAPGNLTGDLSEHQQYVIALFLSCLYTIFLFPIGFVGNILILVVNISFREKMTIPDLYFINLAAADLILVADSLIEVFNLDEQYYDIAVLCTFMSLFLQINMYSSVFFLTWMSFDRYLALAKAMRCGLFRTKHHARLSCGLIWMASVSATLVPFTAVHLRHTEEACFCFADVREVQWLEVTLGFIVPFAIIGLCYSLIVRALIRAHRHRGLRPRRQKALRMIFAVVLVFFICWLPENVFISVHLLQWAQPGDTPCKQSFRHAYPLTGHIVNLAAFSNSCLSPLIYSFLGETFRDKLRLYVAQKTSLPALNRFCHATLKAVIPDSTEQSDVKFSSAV

O=C(O)O [bicarbonate]
EC50 (GPR30 [1]): 12.2 mM
EC50 (GPR30 [2]): 11.4 mM
cell-based activation assay of expressed receptor (GPR30 [3]): Activation of GPR30 by bicarbonate ions was conserved among various species, including rats
cell-based activation assay of expressed receptor (GPR30 [4]): Activation of GPR30 by bicarbonate ions was conserved among various species, including rats
